Data reported in ChEMBL document CHEMBL5724806, “Unraveling interindividual differences and functional consequences of gut microbial metabolism of immunosuppressants” (2024).

How the values were obtained:
Type in all cases: ADME
[1] = The drug is tested on Actinomyces naeslundi strain: DSM43013 for biotransformation under anaerobic condition. The drug concentrations were measured over 6 timepoints collected between 0 and 12 hours of incubation by liquid-chromatography-coupled mass spectrometry (LC–MS); set-up: dose 5 uM, timepoint 0, 1.5, 3, 6, 9, 12 hours; settings: actinomyces naeslundii, 5 µM
[2] = The drug is tested on Bifidobacterium adolescentis strain: DSM20083 for biotransformation under anaerobic condition. The drug concentrations were measured over 6 timepoints collected between 0 and 12 hours of incubation by liquid-chromatography-coupled mass spectrometry (LC–MS); set-up: dose 5 uM, timepoint 0, 1.5, 3, 6, 9, 12 hours; settings: 5 µM
[3] = The drug is tested on Collinsella aerofaciens strain: DSM3979 for biotransformation under anaerobic condition. The drug concentrations were measured over 6 timepoints collected between 0 and 12 hours of incubation by liquid-chromatography-coupled mass spectrometry (LC–MS); set-up: dose 5 uM, timepoint 0, 1.5, 3, 6, 9, 12 hours; settings: 5 µM
[4] = The drug is tested on Bacteroides vulgatus strain: DSM1447 for biotransformation under anaerobic condition. The drug concentrations were measured over 6 timepoints collected between 0 and 12 hours of incubation by liquid-chromatography-coupled mass spectrometry (LC–MS); set-up: dose 5 uM, timepoint 0, 1.5, 3, 6, 9, 12 hours; settings: phocaeicola vulgatus, 5 µM
[5] = The drug is tested on Eubacterium rectale strain: DSM17629 for biotransformation under anaerobic condition. The drug concentrations were measured over 6 timepoints collected between 0 and 12 hours of incubation by liquid-chromatography-coupled mass spectrometry (LC–MS); set-up: dose 5 uM, timepoint 0, 1.5, 3, 6, 9, 12 hours; settings: agathobacter rectalis, 5 µM
[6] = The drug is tested on Lactobacillus reuteri strain: DSM20016 for biotransformation under anaerobic condition. The drug concentrations were measured over 6 timepoints collected between 0 and 12 hours of incubation by liquid-chromatography-coupled mass spectrometry (LC–MS); set-up: dose 5 uM, timepoint 0, 1.5, 3, 6, 9, 12 hours; settings: limosilactobacillus reuteri, 5 µM
[7] = The drug is tested on Streptococcus anginosus strain: DSM20563 for biotransformation under anaerobic condition. The drug concentrations were measured over 6 timepoints collected between 0 and 12 hours of incubation by liquid-chromatography-coupled mass spectrometry (LC–MS); set-up: dose 5 uM, timepoint 0, 1.5, 3, 6, 9, 12 hours; settings: 5 µM
[8] = The drug is tested on Actinomyces graevenitzii strain: DSM15540 for biotransformation under microaerobic condition. The drug concentrations were measured over 6 timepoints collected between 0 and 12 hours of incubation by liquid-chromatography-coupled mass spectrometry (LC–MS); set-up: dose 5 uM, timepoint 0, 1.5, 3, 6, 9, 12 hours; settings: 5 µM
[9] = The drug is tested on Alloscardovia omnicolens strain: DSM21503 for biotransformation under microaerobic condition. The drug concentrations were measured over 6 timepoints collected between 0 and 12 hours of incubation by liquid-chromatography-coupled mass spectrometry (LC–MS); set-up: dose 5 uM, timepoint 0, 1.5, 3, 6, 9, 12 hours; settings: 5 µM
[10] = The drug is tested on Gemella morbillorum strain: DSM20572 for biotransformation under microaerobic condition. The drug concentrations were measured over 6 timepoints collected between 0 and 12 hours of incubation by liquid-chromatography-coupled mass spectrometry (LC–MS); set-up: dose 5 uM, timepoint 0, 1.5, 3, 6, 9, 12 hours; settings: 5 µM
[11] = The drug is tested on Lactobacillus paracasei strain: ATCC27092 for biotransformation under microaerobic condition. The drug concentrations were measured over 6 timepoints collected between 0 and 12 hours of incubation by liquid-chromatography-coupled mass spectrometry (LC–MS); set-up: dose 5 uM, timepoint 0, 1.5, 3, 6, 9, 12 hours; settings: lacticaseibacillus paracasei, 5 µM
[12] = The drug is tested on Streptococcus sanguinis strain: DSM20567 for biotransformation under microaerobic condition. The drug concentrations were measured over 6 timepoints collected between 0 and 12 hours of incubation by liquid-chromatography-coupled mass spectrometry (LC–MS); set-up: dose 5 uM, timepoint 0, 1.5, 3, 6, 9, 12 hours; settings: 5 µM
[13] = The drug is tested on Enterococcus faecalis strain: ATCC29212 for biotransformation under microaerobic condition. The drug concentrations were measured over 6 timepoints collected between 0 and 12 hours of incubation by liquid-chromatography-coupled mass spectrometry (LC–MS); set-up: dose 5 uM, timepoint 0, 1.5, 3, 6, 9, 12 hours; settings: 5 µM
[14] = The drug is tested on the gut metagenome community of A-01 with ENA study accession number: PRJEB31790 for biotransformation under anaerobic condition. The drug concentrations were measured over 7 timepoints collected between 0 and 12 hours of incubation by liquid-chromatography-coupled mass spectrometry (LC–MS); set-up: dose 5 uM, timepoint 0, 0.75, 1.5, 3, 6, 9, 12 hours; settings: 5 µM
[15] = The drug is tested on the gut metagenome community of A-04 with ENA study accession number: PRJEB31790 for biotransformation under anaerobic condition. The drug concentrations were measured over 7 timepoints collected between 0 and 12 hours of incubation by liquid-chromatography-coupled mass spectrometry (LC–MS); set-up: dose 5 uM, timepoint 0, 0.75, 1.5, 3, 6, 9, 12 hours; settings: 5 µM
[16] = The drug is tested on the gut metagenome community of A-07 with ENA study accession number: PRJEB31790 for biotransformation under anaerobic condition. The drug concentrations were measured over 7 timepoints collected between 0 and 12 hours of incubation by liquid-chromatography-coupled mass spectrometry (LC–MS); set-up: dose 5 uM, timepoint 0, 0.75, 1.5, 3, 6, 9, 12 hours; settings: 5 µM
[17] = The drug is tested on the gut metagenome community of A-08 with ENA study accession number: PRJEB31790 for biotransformation under anaerobic condition. The drug concentrations were measured over 7 timepoints collected between 0 and 12 hours of incubation by liquid-chromatography-coupled mass spectrometry (LC–MS); set-up: dose 5 uM, timepoint 0, 0.75, 1.5, 3, 6, 9, 12 hours; settings: 5 µM
[18] = The drug is tested on the gut metagenome community of T-04 with ENA study accession number: PRJEB31790 for biotransformation under anaerobic condition. The drug concentrations were measured over 7 timepoints collected between 0 and 12 hours of incubation by liquid-chromatography-coupled mass spectrometry (LC–MS); set-up: dose 5 uM, timepoint 0, 0.75, 1.5, 3, 6, 9, 12 hours; settings: 5 µM
[19] = The drug is tested on the gut metagenome community of T-05 with ENA study accession number: PRJEB31790 for biotransformation under anaerobic condition. The drug concentrations were measured over 7 timepoints collected between 0 and 12 hours of incubation by liquid-chromatography-coupled mass spectrometry (LC–MS); set-up: dose 5 uM, timepoint 0, 0.75, 1.5, 3, 6, 9, 12 hours; settings: 5 µM
[20] = The drug is tested on the gut metagenome community of A-02 with ENA study accession number: PRJEB31790 for biotransformation under microaerobic condition. The drug concentrations were measured over 7 timepoints collected between 0 and 12 hours of incubation by liquid-chromatography-coupled mass spectrometry (LC–MS); set-up: dose 5 uM, timepoint 0, 0.75, 1.5, 3, 6, 9, 12 hours; settings: 5 µM
[21] = The drug is tested on the gut metagenome community of A-05 with ENA study accession number: PRJEB31790 for biotransformation under microaerobic condition. The drug concentrations were measured over 7 timepoints collected between 0 and 12 hours of incubation by liquid-chromatography-coupled mass spectrometry (LC–MS); set-up: dose 5 uM, timepoint 0, 0.75, 1.5, 3, 6, 9, 12 hours; settings: 5 µM
[22] = The drug is tested on the gut metagenome community of A-07 with ENA study accession number: PRJEB31790 for biotransformation under microaerobic condition. The drug concentrations were measured over 7 timepoints collected between 0 and 12 hours of incubation by liquid-chromatography-coupled mass spectrometry (LC–MS); set-up: dose 5 uM, timepoint 0, 0.75, 1.5, 3, 6, 9, 12 hours; settings: 5 µM
[23] = The drug is tested on the gut metagenome community of A-08 with ENA study accession number: PRJEB31790 for biotransformation under microaerobic condition. The drug concentrations were measured over 7 timepoints collected between 0 and 12 hours of incubation by liquid-chromatography-coupled mass spectrometry (LC–MS); set-up: dose 5 uM, timepoint 0, 0.75, 1.5, 3, 6, 9, 12 hours; settings: 5 µM
[24] = The drug is tested on the gut metagenome community of P-01 with ENA study accession number: PRJEB31790 for biotransformation under microaerobic condition. The drug concentrations were measured over 7 timepoints collected between 0 and 12 hours of incubation by liquid-chromatography-coupled mass spectrometry (LC–MS); set-up: dose 5 uM, timepoint 0, 0.75, 1.5, 3, 6, 9, 12 hours; settings: 5 µM
[25] = The drug is tested on the gut metagenome community of P-03 with ENA study accession number: PRJEB31790 for biotransformation under microaerobic condition. The drug concentrations were measured over 7 timepoints collected between 0 and 12 hours of incubation by liquid-chromatography-coupled mass spectrometry (LC–MS); set-up: dose 5 uM, timepoint 0, 0.75, 1.5, 3, 6, 9, 12 hours; settings: 5 µM

SMILES | Bacterial Biotransformation [1] | Bacterial Biotransformation [2] | Bacterial Biotransformation [3] | Bacterial Biotransformation [4] | Bacterial Biotransformation [5] | Bacterial Biotransformation [6] | Bacterial Biotransformation [7] | Bacterial Biotransformation [8] | Bacterial Biotransformation [9] | Bacterial Biotransformation [10] | Bacterial Biotransformation [11] | Bacterial Biotransformation [12] | Bacterial Biotransformation [13] | Bacterial Biotransformation [14] | Bacterial Biotransformation [15] | Bacterial Biotransformation [16] | Bacterial Biotransformation [17] | Bacterial Biotransformation [18] | Bacterial Biotransformation [19] | Bacterial Biotransformation [20] | also measured
CNC(=C[N+](=O)[O-])NCCSCc1ccc(CN(C)C)o1 [RANITIDINE] | Compound NOT metabolized | Compound NOT metabolized | Compound NOT metabolized | Compound NOT metabolized | Compound NOT metabolized | Compound NOT metabolized | Compound NOT metabolized | Compound NOT metabolized | Compound NOT metabolized | Compound NOT metabolized | Compound NOT metabolized | Compound NOT metabolized | Compound metabolized | Compound NOT metabolized | Compound metabolized | Compound NOT metabolized | Compound NOT metabolized | Compound NOT metabolized | Compound NOT metabolized | Compound metabolized | Bacterial Biotransformation [21]: Compound NOT metabolized; Bacterial Biotransformation [22]: Compound metabolized; Bacterial Biotransformation [23]: Compound metabolized; Bacterial Biotransformation [24]: Compound metabolized; Bacterial Biotransformation [25]: Compound NOT metabolized
CCC(C)(C)C(=O)O[C@H]1C[C@@H](C)C=C2C=C[C@H](C)[C@H](CC[C@@H]3C[C@@H](O)CC(=O)O3)[C@H]21 [SIMVASTATIN] | Compound NOT metabolized | Compound NOT metabolized | Compound NOT metabolized | Compound NOT metabolized | Compound NOT metabolized | Compound NOT metabolized | Compound NOT metabolized | Compound NOT metabolized | Compound NOT metabolized | Compound NOT metabolized | Compound NOT metabolized | Compound NOT metabolized | Compound metabolized | Compound NOT metabolized | Compound NOT metabolized | Compound NOT metabolized | Compound NOT metabolized | Compound NOT metabolized | Compound NOT metabolized | Compound metabolized | Bacterial Biotransformation [21]: Compound NOT metabolized; Bacterial Biotransformation [22]: Compound NOT metabolized; Bacterial Biotransformation [23]: Compound NOT metabolized; Bacterial Biotransformation [24]: Compound NOT metabolized; Bacterial Biotransformation [25]: Compound NOT metabolized
CO[C@H]1C[C@@H]2CC[C@@H](C)[C@@](O)(O2)C(=O)C(=O)N2CCCC[C@H]2C(=O)O[C@H]([C@H](C)C[C@@H]2CC[C@@H](O)[C@H](OC)C2)CC(=O)[C@H](C)/C=C(\C)[C@@H](O)[C@@H](OC)C(=O)[C@H](C)C[C@H](C)/C=C/C=C/C=C/1C [SIROLIMUS] | Compound metabolized | Compound NOT metabolized | Compound metabolized | Compound NOT metabolized | Compound NOT metabolized | Compound NOT metabolized | Compound NOT metabolized | Compound metabolized | Compound NOT metabolized | Compound NOT metabolized | Compound NOT metabolized | Compound NOT metabolized | Compound metabolized | Compound NOT metabolized | Compound metabolized | Compound metabolized | Compound metabolized | Compound NOT metabolized | Compound NOT metabolized | Compound metabolized | Bacterial Biotransformation [21]: Compound metabolized; Bacterial Biotransformation [22]: Compound metabolized; Bacterial Biotransformation [23]: Compound metabolized; Bacterial Biotransformation [24]: Compound NOT metabolized; Bacterial Biotransformation [25]: Compound NOT metabolized
